Data: PubChem BioAssay AID248 (DTP/NCI, 2004)
Values joined by “and” are separate entries in the source; they are usually repeats but may differ in a detail not shown here. Equal entries are not always repeated. Toxic doses and inconclusive results are not listed. No stated cut-off is given here; in the data, active means T/C of 150% or more; inactive means T/C below 125%.

System: L1210 leukemia ip in BDF1 mice, survival T/C
Test: NCI In Vivo Anticancer Drug Screen. Data for tumor model L1210 Leukemia (intraperitoneal) in B6D2F1 (BDF1) mice
Conditions: endpoint: mean survival time, higher = longer survival
Method in brief: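 Mice bearing the transplanted tumor received compound or vehicle. Survival of the treated group was divided by that of the vehicle-treated control group to give the ratio.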

[1] = dose: 100.0 mg/kg/injection, schedule: Q01DX001 (ip), vehicle: saline
[2] = dose: 200.0 mg/kg/injection, schedule: Q01DX001 (ip), vehicle: saline
[3] = dose: 400.0 mg/kg/injection, schedule: Q01DX001 (ip), vehicle: saline
[4] = dose: 100.0 mg/kg/injection, schedule: Q01DX009 (ip), vehicle: saline with Tween-80
[5] = dose: 100.0 mg/kg/injection, schedule: Q04DX003 (ip), vehicle: saline with Tween-80
[6] = dose: 200.0 mg/kg/injection, schedule: Q01DX009 (ip), vehicle: saline with Tween-80
[7] = dose: 200.0 mg/kg/injection, schedule: Q04DX003 (ip), vehicle: saline with Tween-80
[8] = dose: 400.0 mg/kg/injection, schedule: Q01DX009 (ip), vehicle: saline with Tween-80
[9] = dose: 400.0 mg/kg/injection, schedule: Q04DX003 (ip), vehicle: saline with Tween-80
[10] = dose: 100.0 mg/kg/injection, schedule: Q01DX001 (ip), vehicle: other
[11] = dose: 200.0 mg/kg/injection, schedule: Q01DX001 (ip), vehicle: other
[12] = dose: 400.0 mg/kg/injection, schedule: Q01DX001 (ip), vehicle: other
[13] = dose: 100.0 mg/kg/injection, schedule: Q01DX001 (ip), vehicle: carboxymethylcellulose (CMC)
[14] = dose: 200.0 mg/kg/injection, schedule: Q01DX001 (ip), vehicle: carboxymethylcellulose (CMC)
[15] = dose: 400.0 mg/kg/injection, schedule: Q01DX001 (ip), vehicle: carboxymethylcellulose (CMC)
[16] = dose: 100.0 mg/kg/injection, schedule: Q01DX009 (ip), vehicle: Klucel (hydroxypropylcellulose) (HPC)
[17] = dose: 100.0 mg/kg/injection, schedule: Q04DX003 (ip), vehicle: Klucel (hydroxypropylcellulose) (HPC)
[18] = dose: 200.0 mg/kg/injection, schedule: Q01DX009 (ip), vehicle: Klucel (hydroxypropylcellulose) (HPC)
[19] = dose: 200.0 mg/kg/injection, schedule: Q04DX003 (ip), vehicle: Klucel (hydroxypropylcellulose) (HPC)
[20] = dose: 50.0 mg/kg/injection, schedule: Q01DX001 (ip), vehicle: carboxymethylcellulose (CMC)

Measured: T/C

CCNc1ncnc2c1c(C(N)=S)cn2C1OC(CO)C(O)C1O (configuration not stated)
inactive: dose: 12.5 mg/kg/injection, schedule: Q01DX005 (ip), vehicle: saline 111 % of control and 113 % of control | dose: 12.5 mg/kg/injection, schedule: Q01DX009 (ip), vehicle: Klucel (hydroxypropylcellulose) (HPC) 109 % of control | dose: 12.5 mg/kg/injection, schedule: Q01DX009 (ip), vehicle: saline 111 % of control | dose: 25.0 mg/kg/injection, schedule: Q01DX005 (ip), vehicle: saline 105 % of control and 124 % of control | dose: 25.0 mg/kg/injection, schedule: Q01DX009 (ip), vehicle: Klucel (hydroxypropylcellulose) (HPC) 91 % of control | dose: 25.0 mg/kg/injection, schedule: Q01DX009 (ip), vehicle: saline 112 % of control

c1cncc(Nc2c3ccccc3nc3ccccc23)c1
inactive: [1] 97 % of control | [2] 99 % of control | [3] 94 % of control

COC(=O)CC(OC)OC
inactive: [4] 107 % of control | dose: 100.0 mg/kg/injection, schedule: Q01DX009 (ip), vehicle: saline 103 % of control | [5] 89 % of control | [6] 100 % of control | dose: 200.0 mg/kg/injection, schedule: Q01DX009 (ip), vehicle: saline 103 % of control | [7] 102 % of control | [8] 97 % of control | dose: 400.0 mg/kg/injection, schedule: Q01DX009 (ip), vehicle: saline 105 % of control | [9] 101 % of control

COc1cc(N=Nc2ccc3c(c2)Cc2ccccc2-3)c(OC)cc1N
inactive: [10] 111 % of control | [11] 88 % of control | [12] 105 % of control

ClC1C2C=CC1CC2 (configuration not stated)
inactive: [13] 90 % of control | [14] 90 % of control | [15] 93 % of control

CCC1(c2ccccc2)NC(=O)N(C)C1=O (configuration not stated)
inactive: [16] 97 % of control | [17] 100 % of control | [18] 110 % of control | [19] 95 % of control | dose: 400.0 mg/kg/injection, schedule: Q04DX003 (ip), vehicle: Klucel (hydroxypropylcellulose) (HPC) 90 % of control

CCOC(=O)N1CCC2(CC1)CC(=O)N(N1CCCCCC1)C2=O
inactive: dose: 100.0 mg/kg/injection, schedule: Q04DX002 (ip), vehicle: Klucel (hydroxypropylcellulose) (HPC) 93 % of control | dose: 200.0 mg/kg/injection, schedule: Q04DX002 (ip), vehicle: Klucel (hydroxypropylcellulose) (HPC) 93 % of control

CC1(C)CN=C(c2ccc([N+](=O)[O-])cc2)O1
inactive: dose: 75.0 mg/kg/injection, schedule: Q04DX003 (ip), vehicle: Klucel (hydroxypropylcellulose) (HPC) 108 % of control | dose: 150.0 mg/kg/injection, schedule: Q04DX003 (ip), vehicle: Klucel (hydroxypropylcellulose) (HPC) 94 % of control | dose: 300.0 mg/kg/injection, schedule: Q04DX003 (ip), vehicle: Klucel (hydroxypropylcellulose) (HPC) 89 % of control

CNc1ccccc1CCc1ccccc1CO
inactive: dose: 400.0 mg/kg/injection, schedule: Q04DX002 (ip), vehicle: Klucel (hydroxypropylcellulose) (HPC) 89 % of control

CN(C)[C](=O)[Pb]([c]1ccccc1)([c]1ccccc1)[c]1ccccc1
inactive: dose: 100.0 mg/kg/injection, schedule: Q04DX002 (ip), vehicle: saline with Tween-80 98 % of control | dose: 200.0 mg/kg/injection, schedule: Q04DX002 (ip), vehicle: saline with Tween-80 98 % of control

C#CCCCc1ccccc1
inactive: [20] 102 % of control | [13] 98 % of control | [14] 96 % of control | [15] 96 % of control

C[N+](C)(C)CCC[N+]1(C)CC2C3CCCCC3=C3CCCCC3C2C1 (configuration not stated)
inactive: dose: 5.0 mg/kg/injection, schedule: Q01DX001 (ip), vehicle: saline 95 % of control | dose: 10.0 mg/kg/injection, schedule: Q01DX001 (ip), vehicle: saline 98 % of control | dose: 20.0 mg/kg/injection, schedule: Q01DX001 (ip), vehicle: saline 101 % of control

CN(C)C(=O)Sc1ccc(SC(=O)N(C)C)cc1
inactive: dose: 100.0 mg/kg/injection, schedule: Q01DX001 (ip), vehicle: saline with Tween-80 97 % of control | dose: 200.0 mg/kg/injection, schedule: Q01DX001 (ip), vehicle: saline with Tween-80 97 % of control | dose: 400.0 mg/kg/injection, schedule: Q01DX001 (ip), vehicle: saline with Tween-80 97 % of control

C/C(=C\c1ccc2ccccc2c1)[N+](=O)[O-]
inactive: dose: 75.0 mg/kg/injection, schedule: Q01DX001 (ip), vehicle: saline 108 % of control | dose: 150.0 mg/kg/injection, schedule: Q01DX001 (ip), vehicle: saline 100 % of control | dose: 300.0 mg/kg/injection, schedule: Q01DX001 (ip), vehicle: saline 105 % of control

CSc1nc(N)c(N)c(SC)n1
inactive: dose: 16.0 mg/kg/injection, schedule: Q01DX Z (ip), vehicle: methylcellulose (MC) 91 % of control | dose: 31.0 mg/kg/injection, schedule: Q01DX Z (ip), vehicle: methylcellulose (MC) 93 % of control | dose: 62.0 mg/kg/injection, schedule: Q01DX Z (ip), vehicle: methylcellulose (MC) 96 % of control | [10] 102 % of control | dose: 100.0 mg/kg/injection, schedule: Q04DX003 (ip), vehicle: other 94 % of control | dose: 125.0 mg/kg/injection, schedule: Q01DX Z (ip), vehicle: methylcellulose (MC) 93 % of control | [11] 101 % of control | dose: 200.0 mg/kg/injection, schedule: Q04DX003 (ip), vehicle: other 96 % of control | [12] 96 % of control | dose: 400.0 mg/kg/injection, schedule: Q04DX003 (ip), vehicle: other 102 % of control

CCOC(=O)C1CC(C(=O)OCC)C(=O)C1=O (configuration not stated)
inactive: [5] 100 % of control | [7] 99 % of control | [9] 86 % of control

O=Cc1[nH]c(=S)[nH]c(=O)c1Cc1ccc(Cl)cc1
inactive: [1] 96 % of control | [2] 93 % of control | [3] 96 % of control

COc1c(C)ccc(/C=N/NC(=O)c2ccncc2)c1C
inactive: dose: 100.0 mg/kg/injection, schedule: Q04DX002 (ip), vehicle: carboxymethylcellulose (CMC) 95 % of control | dose: 200.0 mg/kg/injection, schedule: Q04DX002 (ip), vehicle: carboxymethylcellulose (CMC) 95 % of control | dose: 400.0 mg/kg/injection, schedule: Q04DX002 (ip), vehicle: carboxymethylcellulose (CMC) 92 % of control

O=c1c2cn[nH]c2nc2ccccn12
inactive: [1] 96 % of control | [2] 94 % of control | [3] 94 % of control

O=C(NCCCBr)Nc1cccc2c1CCCC2
inactive: dose: 50.0 mg/kg/injection, schedule: Q04DX003 (ip), vehicle: saline with Tween-80 95 % of control | [4] 100 % of control | [5] 93 % of control | [6] 97 % of control | [7] 101 % of control | [8] 96 % of control | [9] 95 % of control

CSCCC(NC(=O)c1ccccc1)C(N)=O (configuration not stated)
inactive: [4] 90 % of control | [6] 89 % of control

Nc1cc(=O)n(Cc2ccccc2)c(=O)n1Cc1ccccc1
inactive: [20] 104 % of control | [13] 101 % of control | [14] 111 % of control | [15] 98 % of control

Cc1ccc(NC(=S)N2CCCCC2)cc1C
inactive: [16] 92 % of control | [18] 93 % of control | dose: 400.0 mg/kg/injection, schedule: Q01DX009 (ip), vehicle: Klucel (hydroxypropylcellulose) (HPC) 101 % of control

CCC1(O)C(=O)OCc2c1cc(C)[nH]c2=O (configuration not stated)
inactive: dose: 6.25 mg/kg/injection, schedule: Q04DX003 (ip), vehicle: Klucel (hydroxypropylcellulose) (HPC) 86 % of control | dose: 12.5 mg/kg/injection, schedule: Q04DX003 (ip), vehicle: Klucel (hydroxypropylcellulose) (HPC) 94 % of control | dose: 25.0 mg/kg/injection, schedule: Q04DX003 (ip), vehicle: Klucel (hydroxypropylcellulose) (HPC) 86 % of control | dose: 50.0 mg/kg/injection, schedule: Q04DX003 (ip), vehicle: Klucel (hydroxypropylcellulose) (HPC) 89 % of control | [17] 91 % of control | [19] 86 % of control

O=C(SCCNC(=O)N1CCCCC1)Sc1ccccc1
inactive: [5] 105 % of control | [7] 101 % of control | [9] 114 % of control
